Test results reported in PMC5505701, “Somatostatin binds to the human amyloid β peptide and favors the formation of distinct oligomers” (eLife, 2017).
pEC50: −log10 of the molar value. Entries after “also recorded” stand apart in the source; their conditions may differ. No end group written: not given here.

Experiments:
[1] = system: oligomeric versus monomeric Aβ1-42 (Aβ1-42-biotin bait); test: Affinity capture interactome Experiment III (oAβ1-42-biotin vs mAβ1-42-biotin); details: TMT; for Experiment III oAβ1-42-B/mAβ1-42-B Ratio: oligomeric versus monomeric bait, human frontal lobe digitonin extract, pH 8.0, 4°C overnight
[2] = target: Aβ1-42-TMR (Homo sapiens, UniProt P05067); test: FRET competition assay (Edans-SST14 / Aβ1-42-TMR)
Sequence of Aβ1-42-TMR (P05067 672-713 limits assumed): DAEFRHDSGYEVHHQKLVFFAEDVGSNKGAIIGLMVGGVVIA

[3] = target: T1, Aβ1-40 (Homo sapiens, UniProt P05067); test: ThT fluorescence Aβ1-40 aggregation assay; assay type: biochemical; details: 5 to 10 times higher peptide concentrations
T1 construct: Aβ1-40 (catalog number AS-24236); purchased Anaspec, Inc. (Fremont, CA, USA) AS-24236; host or cells: synthetic peptide
T1 sequence (P05067 672-711 limits assumed): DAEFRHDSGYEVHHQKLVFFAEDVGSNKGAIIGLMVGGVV
Source text: (§1) Next, Western blot analyses of ThT assay fractions were undertaken without or with prior boiling in SDS. […] Only when SDS was present in the sample buffer, low mass bands appeared in the Western blot that migrated at a level expected for the monomeric Aβ peptide, consistent with the interpretation that these peptides were released from larger oligomeric or fibrillar aggregates under denaturing conditions (see also Figure 5).
(§2) Assay procedures were largely based on a protocol described by Sarah Linse’s group ([Hellstrand et al., 2010]). […] 100 μL of peptide solutions were supplemented with 25 μM thioflavin T (ThT) (catalog number T3516, Sigma-Aldrich Canada, Oakville, ON, Canada) and loaded into 96-Well Half-Area Microplates (catalog number 675096, Greiner Bio One International, Kremsmünster, Austria). The subsequent plate incubation proceeded at 37°C with shaking at 700 rpm for 4 of every 5 min in a microplate reader (CLARIOstar, BMG Labtech, Guelph, ON, Canada) for overall durations specified in individual figures. ThT fluorescence was measured every 5 min at excitation and emission wavelengths of 444 nm and 485 nm, respectively.

[4] = system: tau phosphorylated at pSer202/pThr205 (AT8) and pThr231 (AT180) in primary hippocampal neurons; test: Primary hippocampal neuron tau phosphorylation assay (Western blot); details: for effect on oAβ1-42-induced tau hyperphosphorylation: peptide added together with oAβ1-42; for reduction in tau phosphorylation at AT8, pre-aggregated peptide alone: peptide subjected to pre-aggregation step, no Aβ
[5] = target: T2, Aβ1-42 (Homo sapiens, UniProt P05067); test: Western blot of ThT assay fractions: oligomeric complexes of Aβ1-42; assay type: biochemical; details: for SDS-stable complex with three Aβ1-42 peptides: five-fold increased Aβ1-42 level
T2 construct: purchased Anaspec, Inc. (Fremont, CA, USA) AS-24224; host or cells: synthetic peptide
T2 sequence (P05067 672-713 limits assumed): as the sequence (P05067 672-713 limits assumed) above
Source text: as §1

[6] = target: T2, Aβ1-42; test: Western blot / silver stain detection of Aβ1-42 after incubation with SST14 or CST17; assay type: biochemical
Procedure: Initially, we were interested in observing the influence of incubation time on sample composition (Figure 5B).

[7] = target: T2, Aβ1-42; test: Thioflavin T (ThT) fluorescence Aβ1-42 aggregation assay; assay type: biochemical
Procedure: as §2

[8] = system: oligomeric Aβ1-42 (oAβ1-42-biotin bait); test: Affinity capture interactome Experiment II (C-terminally tethered oAβ1-42-biotin vs biotin); details: enrichment relative to biotin-only negative control; human frontal lobe digitonin extract; TMT; pH 8.0, 4°C overnight
[9] = system: Aβ1-42 and Aβ17-42 biotin baits; test: iTRAQ affinity capture with four baits (biotin, biotin-Aβ1-42, Aβ1-42-biotin, Aβ17-42-biotin); assay type: binding; details: oAβ1-42-biotin versus N-terminally biotinylated Aβ1-42, Aβ17-42-biotin and biotin; human frontal lobe extract
Source text: This conclusion was strengthened by the fact that this peptide is naturally preceded by a tryptic cleavage site and the exquisite match between observed and in silico predicted fragment ions (Figure 2B). In light of the high intensity ion counts of fragments observed for this peptide and its robust co-enrichment with oAβ1-42-B in three biological replicates (Figure 2C), it first seemed puzzling that the identification of this protein group was not corroborated by other spectra that map to sequences outside of the ‘NFFWK’ sequence stretch. Searching for a plausible explanation, it became apparent that preprosomatostatin and preprocortistatin give rise to cyclic neuropeptide hormones through a series of posttranslational trimming steps, and the ‘NFFWK’ peptide is the only tryptic peptide derived from the mature hormone that is of sufficient length and distinct sequence to be readily identifiable by MS (Figure 2A). […] This conclusion was further corroborated by two additional PSMs that mapped to regions outside the SST14 neuropeptide sequence and one additional five amino acid peptide of the sequence ‘TFTSC’ that could be assigned (albeit not unambiguously) to the mature SST14 neuropeptide sequence itself.

2,4-dienoyl-CoA reductase, mitochondrial: human brain protein
Experiment III oAβ1-42-B/mAβ1-42-B Ratio [1]: 4.32

C[C@H](N)C(=O)NCC(=O)N[C@H]1CSSC[C@@H](C(=O)O)NC(=O)[C@H](CO)NC(=O)[C@H]([C@@H](C)O)NC(=O)[C@H](Cc2ccccc2)NC(=O)[C@H]([C@@H](C)O)NC(=O)[C@H](CCCCN)NC(=O)[C@H](Cc2c[nH]c3ccccc23)NC(=O)[C@H](Cc2ccccc2)NC(=O)[C@H](Cc2ccccc2)NC(=O)[C@H](CC(N)=O)NC(=O)[C@H](CCCCN)NC1=O [SST14, somatostatin-14]
pEC50 [2]: 4.90

ATP synthase subunit beta, mitochondrial: human brain protein
Experiment III oAβ1-42-B/mAβ1-42-B Ratio [1]: 2.61

Aβ1-40: synthetic human Aβ1-40, Anaspec AS-24236
lag phase of Aβ1-40 aggregation ([3]; peptide alone): 45 min

CST17: preprocortistatin-derived regulatory peptide, Bachem H-5536
effect on oAβ1-42-induced tau hyperphosphorylation [4]: did not prevent the anticipated tau hyperphosphosphorylation-inducing effect of oAβ1-42 exposure | potentiation of tau hyperphosphorylation with monomeric Aβ1-42 ([4]; pre-incubated peptide 4 µM + mAβ1-42 5 µM, 24 hr exposure): potentiate tau hyperphosphorylation | lag phase extension of Aβ (Aβ1-40) aggregation ([3]; SST14 not shown): approximately one hour | intensity of homodimeric Aβ1-42 bands ([5]; Western blot lanes 17-20): reduced | size of SDS-resistant heterodimeric complex with mAβ1-42 ([5]; Western blot, x-42 and 6E10 antibodies): 5-6 kDa | detection of 50-60 kDa bands by antibody directed against C-terminus of Aβ1-42 ([5]; boiled in SDS): escaped detection with an antibody directed against the C-terminus of Aβ1-42 | SDS-stable complex with three Aβ1-42 peptides ([5]; Western blot): occasionally observed signals that migrated at molecular masses expected for SDS-stable complexes consisting of three Aβ1-42 peptides | intensity of HMM 6E10 signals ([6]; 18 hr incubation, 6E10 Western blot): only very weak HMM signals | concentration dependence of 6E10-reactive blot signals ([6]; 18 hr incubation, varying SST14 or CST17 concentration): inverse correlation | masking of Aβ1-42 detection by antibodies 6E10, 4G8, 12F4 ([6]; 18 hr incubation, 4G8 and 12F4 not shown): masked the ability of these antibodies to bind to Aβ1-42 | silver-stain Aβ1-42 signal ([6]; silver-stain of same fractions): relatively stronger Aβ1-42 signals | lag phase extension of Aβ (Aβ1-42) aggregation ([7]; 5 to 10 times higher peptide concentrations, SST14 not shown): approximately one hour | concentration dependence of effect on Aβ1-42 aggregation ([7]; ThT, 37°C): concentration-dependent inhibition of Aβ1-42-dependent ThT fluorescence | relative potency versus SST14 in interfering with Aβ1-42 aggregation ([7]; compared with SST14 (at 15 μM in ThT assay)): more potent in this regard than SST14; also recorded: even more pronounced effects on Aβ aggregation than SST14 | inhibition of Aβ1-42-dependent ThT incorporation ([7]; peptide 15 μM, 37°C, 25 μM ThT): completely abrogated ThT incorporation

CST29: preprocortistatin-derived regulatory peptide, Bachem H-6458 (QEGAPPQQSARRDRMPCRNFFWKTFSSCK; ends and bridges not checked; cysteine pairing not given here; UniProt O00230 77-105, looked up)
effect on oAβ1-42-induced tau hyperphosphorylation [4]: did not prevent the anticipated tau hyperphosphosphorylation-inducing effect of oAβ1-42 exposure

Carbohydrate kinase domain-containing protein: human brain protein
Experiment III oAβ1-42-B/mAβ1-42-B Ratio [1]: 1.72 | Experiment II oAβ1-42-B/B Ratio [8]: 2.17

Cathepsin D: human brain protein
Experiment III oAβ1-42-B/mAβ1-42-B Ratio [1]: 2.10

Cofilin-1: human brain protein
Experiment III oAβ1-42-B/mAβ1-42-B Ratio [1]: 5.34 | Experiment II oAβ1-42-B/B Ratio [8]: 1.75

Dihydropyrimidinase-related protein 1: human brain protein
Experiment III oAβ1-42-B/mAβ1-42-B Ratio [1]: 3.71 | Experiment II oAβ1-42-B/B Ratio [8]: 1.39

Dihydropyrimidinase-related protein 3: human brain protein
Experiment III oAβ1-42-B/mAβ1-42-B Ratio [1]: 3.40 | Experiment II oAβ1-42-B/B Ratio [8]: 1.42

DnaJ homolog subfamily A member 2: human brain protein
Experiment III oAβ1-42-B/mAβ1-42-B Ratio [1]: 6.10

Interleukin enhancer-binding factor 2: human brain protein
Experiment III oAβ1-42-B/mAβ1-42-B Ratio [1]: 1.41

NFFWK
binding preference for oligomeric versus monomeric Aβ1-42-biotin (in words) ([1]; Experiment III, human frontal lobe extract): binds preferentially to oligomeric (pre-aggregated) but not monomeric Aβ1-42-biotin | capture by Aβ baits (iTRAQ signature ion intensity) [9]: the free N-terminus is indeed essential for this peptide-peptide interaction

Pyruvate kinase isozymes M1/M2: human brain protein
Experiment III oAβ1-42-B/mAβ1-42-B Ratio [1]: 4.33 | Experiment II oAβ1-42-B/B Ratio [8]: 1.68

Ras-related protein Rab-1A: human brain protein
Experiment III oAβ1-42-B/mAβ1-42-B Ratio [1]: 3.28

SST28: longer bioactive version of somatostatin, Anaspec AS-22902 (SANSNPAMAPRERKAGCKNFFWKTFTSC; ends and bridges not checked; cysteine pairing not given here; UniProt P61278 89-116, looked up)
effect on oAβ1-42-induced tau hyperphosphorylation [4]: did not prevent the anticipated tau hyperphosphosphorylation-inducing effect of oAβ1-42 exposure

Transforming protein RhoA: human brain protein
Experiment III oAβ1-42-B/mAβ1-42-B Ratio [1]: 5.74

[Arg8]-vasopressin [AVP]
reduction in tau phosphorylation at AT8, pre-aggregated peptide alone [4]: not seen | formation of 50-60 kDa Aβ1-42 bands (in words) ([5]; 18 hr co-incubation, 6E10): not seen in samples incubated either without these peptides or with AVP | SDS-stable complex with three Aβ1-42 peptides ([5]; Western blot): never observed in fractions lacking SST14 (or CST17) or containing AVP | lag phase extension of Aβ1-42 aggregation ([7]; 15 μM SST14 (or control peptide), SEC-purified Aβ1-42, 25 μM ThT, 37°C, shaking 700 rpm): No delay was observed

bombesin
reduction in tau phosphorylation at AT8, pre-aggregated peptide alone [4]: not seen

oxytocin: control neuropeptide, Anaspec AS-24275
reduction in tau phosphorylation at AT8, pre-aggregated peptide alone [4]: not seen
